Measurements taken from patent publication US8242136B2, “Use of glucosidase inhibitors for therapy of mucovisidosis” (Centre National de la Recherche Scientifique (C.N.R.S.), priority 2003, dated 2012).
Entries after “also recorded” stand apart in the source; their conditions may differ. Each block holds one compound with its values, some of them ahead of it.

Tests used:
delF508-CFTR [1] = experiment: Iodide efflux on CF15 cells: addressing of delF508 after pre-treatment, stimulation with forskolin + genistein; type: cell-based, human; conditions: CF15 cells treated with 100μM for two hours at 37° C.; Forskolin 10μM + Genistein 30μM; FIG. 7
delF508-CFTR [2] = experiment: as above; type: cell-based, human
Description: CF15 cells: CF15 cells are human epithelial cells of nasal origin which express the ΔF508-CFTR gene.
The measurements of chloride ion transport in the cells were carried out using the radioactive iodide efflux technique (Becq et al., 1999; Dormer et al., 2001). The tracer (^125I) is incorporated into the intracellular medium. Then, the quantity of radiotracer leaving the cell is counted after the addition of different pharmacological agents. The iodide is used as a tracer of the chloride ion transport. It has been shown that the two radiotracers ^125I and ^36Cl could be considered as equivalents for measuring the activity of a chloride channel (Venglarick et al., 1990). ^125I moreover has the advantage of having a short life compared with that of […] (respective half-lives: 30 days and 300,000 years). The cells are cultured on 24-well plates in an appropriate medium. 2 rinsings with efflux medium (NaCl: 136.6 mM, KCl: 5.4 mM, KH2PO4: 0.3 mM, NaH2PO4: 0.3 mM, NaHCO3: 4.2 mM, CaCl2: 1.3 mM, MgCl2: 0.5 mM, MgSO4: 0.4 mM, HEPES: 10 mM, D-glucose: 5.6 mM) are carried out in order to eliminate the dead cells which release the radioactivity in an anarchic manner. Then, the cells are incubated with 500 μl of charge (1 μCi/ml of ^125INa) for 30 minutes for CHO-WT or 1 hour for CF15 and Calu-3. The iodide is in equilibrium on both sides of the cell membrane. The robot (MultiPROBE, Packard) carries out the following stages: The charge medium is rinsed with efflux medium in order to eliminate the extracellular radioactivity. The supernatant is collected every minute in haemolysis tubes and the medium is replaced by an equivalent volume (500 μl). The samples taken in the first 3 minutes are not subjected to the addition of a drug, they make it possible to obtain a stable base line, characterizing the passive exit of the I^− ions. The following 7 samples are obtained in the presence of the molecule to be tested. At the end of the experiment, the cells are lysed by the addition of 500 μl of NaOH (0.1 N)/0.1% SDS (30 minutes), thus, the radioactivity remaining inside the cell can be determined. The radioactivity present in the haemolysis tubes is counted in counts per minute (cpm) using a gamma counter (Cobra II, Packard). The results in cpm are expressed in the form of exit speed of radioactive iodide (R) according to the following formula: R (min^−1)=[ln(^125I t1)−ln(^125I t2)]/(t1−t2) with ^125I t1: cpm at time t1; ^125I t2: cpm at time t2. This iodide flow is represented in the form of a curve. In order to quantify the exit of iodide due to the administration of the molecule tested, the following relative flow is calculated which makes it possible to be rid of the base flow: Relative speed (min^−1)=Rpeak−Rbasal. […] The results are presented in the form of an average+/−SEM. Student's statistical test is used in order to compare the effects of the drugs with the controls (the values corresponding to P<0.01 are considered statistically significant).
For each experiment, the addition of a cocktail (Forskolin 10 μM, Genistein 30 μM) allows the activation of the CFTR when the latter is on the membrane. […]
The CF15 cells were pre-treated for 2 hours with NB-DNJ (500μM). […] The CFTR activity is measured in iodide efflux (n=8 for each condition) after stimulation by fsk 10μM+Gst 30μM.
The CF15 cells were pre-treated for 2 hours with NB-DNJ at different concentrations. The CFTR activity is measured in iodide efflux (n=4 for each concentration) after stimulation with fsk 10μM+Gst 30μM.

wild-type CFTR [3] = experiment: Iodide efflux on Calu-3 cells pre-treated for 2 hours: addressing of wild-type CFTR; type: cell-based, human; conditions: Calu-3 cells pre-incubated 2 hours at 37° C. (NB-DNJ 500μM or MPB-91 250μM), stimulated with 250μM MPB-91
Description: (§1) Calu-3 cells: Calu-3 cells are human epithelial cells of pulmonary origin which express the wild-type CFTR gene.
(§2) The measurements of chloride ion transport in the cells were carried out using the radioactive iodide efflux technique (Becq et al., 1999; Dormer et al., 2001). The tracer (^125I) is incorporated into the intracellular medium. Then, the quantity of radiotracer leaving the cell is counted after the addition of different pharmacological agents. The iodide is used as a tracer of the chloride ion transport. […] 2 rinsings with efflux medium (NaCl: 136.6 mM, KCl: 5.4 mM, KH2PO4: 0.3 mM, NaH2PO4: 0.3 mM, NaHCO3: 4.2 mM, CaCl2: 1.3 mM, MgCl2: 0.5 mM, MgSO4: 0.4 mM, HEPES: 10 mM, D-glucose: 5.6 mM) are carried out in order to eliminate the dead cells which release the radioactivity in an anarchic manner. […] The robot (MultiPROBE, Packard) carries out the following stages: The charge medium is rinsed with efflux medium in order to eliminate the extracellular radioactivity. […] At the end of the experiment, the cells are lysed by the addition of 500 μl of NaOH (0.1 N)/0.1% SDS (30 minutes), thus, the radioactivity remaining inside the cell can be determined. The radioactivity present in the haemolysis tubes is counted in counts per minute (cpm) using a gamma counter (Cobra II, Packard). […]

wild-type CFTR [4] = target: T1, wild-type CFTR (Homo sapiens, UniProt P13569); experiment: Iodide efflux on Calu-3 cells: compound tested as activator; type: cell-based; conditions: fsk 5μM, MPB-91 250μM, NB-DNJ 500μM, n=8
T1 construct: Calu-3 cells are human epithelial cells of pulmonary origin which express the wild-type CFTR gene; endogenous in cells; host or cells: Calu-3 human pulmonary epithelial cells
T1 sequence (P13569 whole entry): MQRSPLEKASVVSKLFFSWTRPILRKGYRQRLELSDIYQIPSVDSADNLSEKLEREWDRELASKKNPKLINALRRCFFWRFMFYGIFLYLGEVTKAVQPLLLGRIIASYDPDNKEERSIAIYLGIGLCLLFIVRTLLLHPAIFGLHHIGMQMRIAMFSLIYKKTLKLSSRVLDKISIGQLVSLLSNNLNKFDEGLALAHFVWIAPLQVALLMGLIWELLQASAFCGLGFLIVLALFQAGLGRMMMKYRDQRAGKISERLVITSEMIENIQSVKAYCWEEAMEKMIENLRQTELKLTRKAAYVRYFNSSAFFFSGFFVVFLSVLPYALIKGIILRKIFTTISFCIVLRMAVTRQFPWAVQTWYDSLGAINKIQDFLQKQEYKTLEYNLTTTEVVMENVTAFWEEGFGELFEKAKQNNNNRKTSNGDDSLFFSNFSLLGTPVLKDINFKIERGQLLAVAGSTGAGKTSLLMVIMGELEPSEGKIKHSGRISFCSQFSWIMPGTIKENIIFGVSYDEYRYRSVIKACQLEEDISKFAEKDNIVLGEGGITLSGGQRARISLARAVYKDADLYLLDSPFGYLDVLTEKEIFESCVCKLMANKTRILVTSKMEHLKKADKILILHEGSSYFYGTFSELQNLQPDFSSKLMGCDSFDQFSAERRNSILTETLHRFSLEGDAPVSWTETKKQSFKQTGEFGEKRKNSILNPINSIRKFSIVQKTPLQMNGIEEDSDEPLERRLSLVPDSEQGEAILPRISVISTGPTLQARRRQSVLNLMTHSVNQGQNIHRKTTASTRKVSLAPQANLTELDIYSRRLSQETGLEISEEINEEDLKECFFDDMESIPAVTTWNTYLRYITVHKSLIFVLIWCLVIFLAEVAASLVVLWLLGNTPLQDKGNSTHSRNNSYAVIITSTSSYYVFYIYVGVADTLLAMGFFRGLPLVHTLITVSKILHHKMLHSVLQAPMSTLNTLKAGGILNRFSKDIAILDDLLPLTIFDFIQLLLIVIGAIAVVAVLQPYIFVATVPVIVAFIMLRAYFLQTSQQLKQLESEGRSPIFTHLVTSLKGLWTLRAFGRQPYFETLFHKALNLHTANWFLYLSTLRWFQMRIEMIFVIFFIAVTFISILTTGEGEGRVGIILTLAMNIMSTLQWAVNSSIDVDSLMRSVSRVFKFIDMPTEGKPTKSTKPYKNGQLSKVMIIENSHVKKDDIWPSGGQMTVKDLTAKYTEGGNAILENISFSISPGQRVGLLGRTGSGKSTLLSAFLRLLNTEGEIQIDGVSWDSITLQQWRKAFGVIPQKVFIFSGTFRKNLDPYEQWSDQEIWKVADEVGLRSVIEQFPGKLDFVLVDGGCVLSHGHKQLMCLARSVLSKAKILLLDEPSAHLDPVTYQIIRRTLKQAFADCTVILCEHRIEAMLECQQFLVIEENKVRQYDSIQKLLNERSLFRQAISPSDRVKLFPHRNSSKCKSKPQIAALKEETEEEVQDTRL
Description: as §1, §2

[5] = patients suffering from acquired immunodeficiency syndrome; cited from earlier work
delF508-CFTR [6] = experiment: Immunolabelling / cell imaging of delF508 location in CF15 cells; type: cell-based, human; conditions: CF15 cells after treatment
Description: Immunolabelling makes it possible to visualize the cell location of the CFTR protein by means of an anti-CFTR primary antibody (Ab) then a primary anti-antibody secondary antibody labelled with Cy3 fluorophore. The cells are previously seeded on lamellae in appropriate culture medium. 3 washings with TBS (NaCl: 157 mM, Tris base: […], pH 7.4) of 5 minutes each are carried out. The cells are then fixed by the addition of TBS-paraformadehyde (3%) over 20 minutes. After 3 washings with TBS (5 minutes), the cells are incubated with 0.1% TBS-triton (10 minutes) which allows the formation of holes in the cell membrane, then 3 washings with TBS are once again carried out before bringing the cells together with 0.5% TBS-BSA-0.05% saponin for 1 hour. The cells are then incubated with the CFTR anti-C terminal primary antibody (2μg/ml) for 1 hour. 3 washings with TBS-BSA-saponin of 5 minutes each are carried out before incubation with the GAM-cy3 secondary antibody ( 1/400) for 1 hour. Following two 5-minute washings with TBS, the nuclei are labelled by incubation with Topro3 ( 1/1000) for 5 minutes. Finally, the lamellae can be mounted on slides after three last 5-minute washings with TBS. […] In order to differentiate between Cy3 and Topro3 labelling the colour of fluorescence of Topro3 has been changed to blue (colour of the nuclei). […]

CHO-WT cells = experiment: MTT cytotoxicity test on CHO-WT cells; type: cell-based, Chinese Hamster; conditions: 2 hours; for cytotoxicity (MTT): CHO cells
Description: CHO-WT cells: CHO (Chinese Hamster Ovary) cells are fibroblasts which have been transfected with the wild-type CFTR gene (CFTR-WT). These cells will therefore overexpress the CFTR protein.
The MTT toxicity test is a colorimetric test which is based on the ability of the mitochondrial dehydrogenases to metabolize MTT (yellow tetrazolium salt) to formazan (purple). The absorbance, proportional to the concentration of converted dye, can then be measured by spectrophotometry. The cells are incubated on 96-well plates in the presence of the agent to be tested for 2 hours. 3 controls are carried out: 100% live cells: cells without agent; 0% live cells: cells left in the open air; blank: medium without cells. […] Then they are incubated for 4 hours with 100 μl of RPMI solution supplemented with MTT (0.5 mg/ml). The medium is then eliminated, the addition of 100 μl of DMSO makes it possible to solubilize the converted dye (formazan). The absorbance is measured by spectrophotometry at: 570 nm (purple); 630 nm (background noise). In order to be rid of the background noise, the following calculation is carried out: ODreal=OD570 nm−OD630 nm.
For the purpose of testing the cytotoxicity of NB-DNJ, CHO-WT cells were incubated for 2 hours with different concentrations of inhibitors before being subjected to the cell viability test with MTT.
2 hours of treatment of the cells.

tissues in culture = conditions: high concentration (2 mM); cited from earlier work
delF508 = conditions: pulmonary epithelial cells; cited from earlier work
[7] = CF15 cells, stimulation Forskolin 10μM + Genistein 30μM

Compound: C[C@@H]1NC[C@@H](O)[C@H](O)[C@@H]1O [DFJ]
- addressing of delF508 and function as ion transporter (iodide efflux) (delF508-CFTR [1]): no significant effect

Compound: OC[C@H]1NC[C@H](O)[C@@H](O)[C@H]1O [DGJ]
- addressing of delF508 and function as ion transporter (iodide efflux) (delF508-CFTR [1]): no significant effect

- EC50 (delF508-CFTR [2]; [7]): 134 µM
Compound: OCC1NCC(O)C(O)C1O (stereo not drawn) [DMJ]
- addressing of delF508 and function as ion transporter (iodide efflux) (delF508-CFTR [1]): restores an addressing of the delF508 protein and allows the latter to function as an ion transporter

- EC50 (delF508-CFTR [2]; [7]): > 250 µM
Compound: OC[C@H]1NC[C@H](O)[C@@H](O)[C@@H]1O [DNJ]
- addressing of delF508 and function as ion transporter (iodide efflux) (delF508-CFTR [1]): restores an addressing of the delF508 protein and allows the latter to function as an ion transporter

- activation of iodide efflux (CFTR activity / anionic transports) (wild-type CFTR [4]): activate an iodide efflux
Compound: CCCCc1c(O)c2cccc(Cl)c2[n+]2ccccc12 [MPB-91]
- CFTR activity (iodide efflux) after 2 hours pre-treatment (wild-type CFTR [3]): not significantly different

Compound: CCCCN1C[C@H](O)[C@@H](O)[C@H](O)[C@H]1CO [NB-DNJ, N-butyl-deoxynojirimycin]
- tolerability in patients [5]: well tolerated
- location of delF508 protein by cell imaging (delF508-CFTR [6]): located the delF508 protein in the plasmatic membrane compartments
- cytotoxicity (MTT) (CHO-WT cells; 5μM): no cytotoxicity is measurable
- cytotoxicity (MTT) (CHO-WT cells; 50μM): no cytotoxicity is measurable
- cytotoxicity (MTT) (CHO-WT cells; 500μM): A low toxicity appears
- cell viability / cytotoxicity (MTT) (CHO-WT cells; CHO-WT cells, all concentrations): exhibits no cell cytotoxicity
- addressing of delF508 and function as ion transporter (iodide efflux) (delF508-CFTR [2]; CF15 cells pre-treated 2 hours at 37° C. with 500μM, stimulation fsk 10μM + Gst 30μM, MPB-91 250μM = 100%): restores addressing of the delF508 protein and allows the latter to function as an ion transporter
- EC50 (delF508-CFTR [2]; CF15 cells pre-treated 2 hours, stimulation fsk 10μM + Gst 30μM, FIG. 2): 123 µM
- CFTR activity (iodide efflux) after 2 hours pre-treatment (wild-type CFTR [3]): the level of CFTR activity is not affected
- activation of iodide efflux (CFTR activity / anionic transports) (wild-type CFTR [4]): is not an activator of the wild-type CFTR nor of other anionic transports of these cells; also recorded: has no effect
- cytotoxicity on tissues in culture (tissues in culture): is not cytotoxic

Compound: O[C@H]1[C@H](O)[C@@H](O)CN2CC[C@H](O)[C@H]12 [castanospermine]
- presence of delF508 at the surface of cells (delF508): had an effect on the renewal of the presence of delF508 at the surface of pulmonary epithelial cells

Compound: CCCCN1C[C@@H](O)[C@H](O)[C@H](O)[C@@H]1C [nB-DFJ]
- addressing of delF508 and function as ion transporter (iodide efflux) (delF508-CFTR [1]): no significant effect

Compound: CCCCN1C[C@H](O)[C@@H](O)[C@@H](O)[C@H]1CO [nB-DGJ]
- addressing of delF508 and function as ion transporter (iodide efflux) (delF508-CFTR [1]): no significant effect

- EC50 (delF508-CFTR [2]; [7]): 113 µM
Compound: CCCCN1C[C@@H](O)[C@@H](O)[C@H](O)[C@H]1CO [nB-DMJ]
- addressing of delF508 and function as ion transporter (iodide efflux) (delF508-CFTR [1]): restores an addressing of the delF508 protein and allows the latter to function as an ion transporter
